Experimental data: patent publication US20190328658A1, “ESTROGEN PRODRUGS AND METHODS OF ADMINISTERING ESTROGEN PRODRUGS” (Evestra, Inc., priority 2018, published 2019)
Converted amounts (≈) assume the structure as drawn.

Columns and labels:
[1] = EP '025; cited from earlier work
[2] = in vitro release rates of estriol prodrugs from intravaginal rings; assay type: physicochemical; settings: for Burst Release d1 / Burst Release d2 / Average API release d3-d21: ring, API loading 5.0 %, core polymer EVA28/2.5 (E3: EVA26/4.0), 37°C; for Burst Release d1: day 1; for Burst Release d2: day 2; for Average API release d3-d21: days 3-21
Description: The estriol prodrugs were processed via hot-melt extrusion and subsequent ring closure to intravaginal rings: […] The hot melt extrusion line for processing the estriol containing EVA28 powder consisted of an 18 mm twin screw extruder, equipped with a loss in weight feeder for dosing the drug containing premix into the extruder. Extrusion was performed at low throughputs of approx. 2 kg/h, the temperature profile of the extruder barrels was adjusted to yield a melt temperature of approx. 125° C. After leaving the die, the strands were directly conveyed through a water bath to obtain a fast cooling process and minimize potential strand deformation. As haul-off unit, a strand pelletizer without knives was used to pull and convey the strand accurately through all downstream sections, ensuring homogeneous strand diameters and a […] shape. […] The cross-sectional diameter of the co-extrudate was measured in-line with a laser system (3 laser heads). […] Alternatively, the ring closure was accomplished via an injection molding process equipment, equipped with a 4.0 mm mold (one or multiple cavities), using EVA28 placebo material as injection material. To determine the in vitro release rates, a rotational incubator, operated at 37±0.5° C., is used. The dissolution medium type, the dissolution medium volume and the rotational speed of the used incubator are selected to provide sink conditions.

[3] = Caco-2 permeability (A-to-B); assay type: in vitro ADME; settings: human; Caco-2, A-to-B, 120 minutes, dosing 5myM
Description: (§1) Caco-2 cells (clone C2BBel) were obtained from American Culture Collection. Cell monolayers were grown to confluence on collagen-coated, microporous membranes in 12-well assay plates. The permeability assay buffer was Hank's balanced salt solution. The buffer in the receiving chamber also contained 1% bovine serum albumin. The dosing solution concentration was 5myMof test article in the assay buffer. Cell monolayers were dosed on the apical side (A-to-B) and incubated at 37° C. with 5% CO2 in a humidified incubator. Samples were taken from the donor and receiver chamber at 120 minutes. All samples were assayed by LC-MS/MS using electrospray ionization. The apparent permeability (Papp) were calculated as follows: […]
(§2) With dCr/dt being the slope of the cumulative concentration in the recover compartment versus time in ny Ms^−1;
(§3) Vr is the volume of the receiver compartment in cm^3
(§4) A is the area of the insert (1.13 cm^2 for 12-well)

Log P = assay type: physicochemical; settings: Table 2
Text: Example 10: Determination of Log p and Permeability Values of Estriol Prodrugs

[4] = Solubility in EVA by hot stage microscopy; assay type: physicochemical; settings: for Solubility in EVA28/2.5 at 37° C. (via HSM): EVA28/2.5, hot stage microscopy
Text: Solubilities in EVA were estimated by hot stage microscopy.

physchem = settings: 37 °C, water, thermodynamic from solid
Description: (§5) Solubilities were determined by shaking (24 hours) an excess of steroid in 20 ml of water/medium at 37° C. Following equilibrium, a portion was passed through a 0,22m-my filter and the steroid concentration in the filtrate was determined by high-performance liquid chromatography.

[5] = test system: Caco-2 cells (clone C2BBel); assay: Caco-2 permeability (A-to-B); assay type: in vitro ADME; settings: Caco-2
Description: as §1, §2, §3, §4

[6] = stated in discussion; cited from earlier work
[7] = depending on the model applied; cited from earlier work
[8] = vaginal or oral application; cited from earlier work
[9] = Solubility in water/medium (shaking 24 hours, HPLC); settings: 37 °C, thermodynamic from solid
Description: as §5

[10] = cited from earlier work

SMILES | Burst Release d1 [2] | Burst Release d2 [2] | Average API release d3-d21 [2] | Papp A→B at 120 min, 5 µM [3] | recovery at 120 min, 5 µM [3] | logP (Log P) | Solubility in EVA28/2.5 at 37° C. (via HSM) [4] | solubility at 24 h (physchem) | further results
CC(=O)O[C@H]1CC[C@H]2[C@@H]3CCc4cc(O)ccc4[C@H]3CC[C@]12C [17-acetate derivative of estradiol] |  |  |  |  |  |  |  |  | daily release rate compared to estradiol [1]: around 3 fold
C[C@]12CCC3c4ccc(O)cc4CCC3C1C[C@@H](O)[C@@H]2OC(=O)C1CC1 (stereo partly drawn) [EC537, (16R,17R)-3,16-dihydroxy-7,8,9,11,12,13,14,15,16,17-decahydro-6H-cyclopenta α phenanthren-17-yl cyclopropanecarboxylate] | 15521.1 µg | 6229.4 µg | 1785.5 µg/day | 24 ×10⁻⁶ cm/s | 26% | 3.55 | 4-5 wt % | 4.2 µg/mL (≈ 11.8 µM) | daily release rate compared to estriol-3-acetate [2]: around 10 fold
CC(=O)Oc1ccc2c(c1)CCC1C2CC[C@@]2(C)C1C[C@@H](O)[C@@H]2O (stereo partly drawn) [EC5104, (8xi,9xi,14xi,16α,17β)-16,17-dihydroxyestra-1(10),2,4-trien-3-yl acetate] | 2891.6 µg | 1322.0 µg | 548.1 µg/day | 23.7 ×10⁻⁶ cm/s | 64% | 3.02 | 0.5 wt % | 57.8 µg/mL | solubility in EVA compared to estriol [4]: comparable to the estriol solubility in EVA
C[C@]12CCC3c4ccc(OC(=O)C5CC5)cc4CCC3C1C[C@@H](O)[C@@H]2O (stereo partly drawn) [EC5105, (8xi,9xi,14xi,16α,17β)-16,17-dihydroxyestra-1(10),2,4-trien-3-yl cyclopropanecarboxylate] | 4301.1 µg | 1369.8 µg | 567.3 µg/day | 1.76 ×10⁻⁶ cm/s | 3% | 3.38 | 0.5-2 wt % | 4.9 µg/mL (≈ 13.7 µM) | Caco-2 permeability, comparison in words [5]: very low permeability compared to the 17 analog
C[C@]12CCC3c4ccc(OC(=O)C5CC5)cc4CCC3C1C[C@@H](O)[C@@H]2OC(=O)C1CC1 (stereo partly drawn) [EC5106, 3,16α,17β-Trihydroxyestra-1,3,5(10)-triene 3,17-biscyclopropane carboxylate] |  |  |  | 11.4 ×10⁻⁶ cm/s | 25% | 3.99 |  |  | 
C#C[C@]1(O)CC[C@H]2[C@@H]3CCc4cc(O)ccc4[C@H]3CC[C@@]21C [EE, ethinyl estradiol, reference compound] |  |  |  | 42.5 ×10⁻⁶ cm/s | 59% | 4.52 |  |  | 
C[C@]12CC[C@@H]3c4ccc(O)cc4CC[C@H]3[C@@H]1CC[C@@H]2O [Example E2, estradiol, reference compound] |  |  |  |  | 15% | 4.13 |  |  | log P [6]: 3.94
C[C@]12CC[C@@H]3c4ccc(O)cc4CC[C@H]3[C@@H]1C[C@@H](O)[C@@H]2O [Example E3, Estriol] | 665.1 µg | 294.5 µg | 119.4 µg/day |  |  |  | 0.5-1% |  | log P [6]: 2.81; reduction in activity compared to estradiol [7]: 10 to 30%; time after application after which no estriol plasma level above the limit could be determined [8]: 4 to 6 h; solubility at 24 h ([9]; water + 2% SLS, aqueous with cosolvent or surfactant or cyclodextrin): 465 µg/mL; solubility at 24 h ([9]; water): 58.4 µg/mL (≈ 203 µM)
CC(=O)Oc1ccc2c(c1)CC[C@@H]1[C@@H]2CC[C@]2(C)[C@@H](O)CC[C@@H]12 [estradiol-3-acetate, estradiol 3-acetate] |  |  |  |  |  |  |  |  | daily release rate compared to estradiol [1]: above 45 fold; solubility in silicone compared to estradiol ([10]; silicone): around 10 fold; solubility in water compared to estradiol ([10]; water): twofold higher
